Our source for the drug sensitivity score values is the supplement of paper PMC11003180.

Common to all, as to assay: drug sensitivity score (DSS) from 5-dose viability curve (DSS (area-based score, 0 = no response)); higher = more sensitive (stronger viability inhibition); extreme values may be limits of the assay
The subject of experiment [1] is MDCK p60AmotL2-inducible + doxycycline (p60AmotL2 expressing). Conditions: doxycycline: 10 ng/mL; 72 h. A digest of the protocol:
(§1)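 Pre-spotted 384-well plates held 528 oncology drugs, each at five doses from 1 to 10,000 nM. Parental and doxycycline-inducible MDCK cells, exposed beforehand to 10 ng/mL doxycycline in the medium, were added at 2000 cells/well and incubated 72 h at 37 °C. Viability came from CellTiter-Glo luminescence normalized per plate to vehicle and positive controls, and the Breeze pipeline fitted dose-response curves to give drug sensitivity scores.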

In experiment [2] the test system is MDCK wild-type + doxycycline. The following applies: doxycycline: 10 ng/mL; 72 h. A digest of the protocol: as §1
For experiment [3], the system named is MDCK wild-type - doxycycline. The following applies: doxycycline: none; 72 h. The gist of the method:
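Viability of parental MDCK cells cultured without doxycycline was measured by CellTiter-Glo luminescence and scaled per plate between vehicle and positive controls. The cells had been exposed for 72 h to an oncology library of 528 drugs at five doses (1-10,000 nM). Drug sensitivity scores were calculated from dose-response curve fits in the Breeze pipeline.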

`CNC(=O)c1cc(Oc2ccc(NC(=O)Nc3ccc(Cl)c(C(F)(F)F)c3)c(F)c2)ccn1` [Regorafenib]: the drug sensitivity score in experiment [1] came out at 5.6; in experiment [2], 3.2; in experiment [3], 3.2.
For the molecule `Nc1nc2[nH]cnc2c(=S)[nH]1` [Thioguanine], the drug sensitivity score in experiment [1] was found to be 1.5; in experiment [2], 3.8; in experiment [3] it was 1.1.
On the same counts, the results for `CC#CC(=O)N1CCC[C@H]1c1nc(-c2ccc(C(=O)Nc3ccccn3)cc2)c2c(N)nccn12` [Acalabrutinib] are 0, 0 and 0.
The like results for `N#Cc1ccnc(N2C(=O)CC[C@H]2C(=O)N(c2cncc(F)c2)[C@H](C(=O)NC2CC(F)(F)C2)c2ccccc2Cl)c1` [Ivosidenib] were, in that order, 0, 0 and 0.
The like results for `O=C(O)CCCCC(CCSCc1ccccc1)SCc1ccccc1` (centres undefined) [CPI-613] were, in that order, 0, 0 and 0.
Consider `CC(C)(C)C[C@@H]1N[C@@H](C(=O)N[C@H]2CC[C@H](O)CC2)[C@H](c2cccc(Cl)c2F)[C@]12C(=O)Nc1cc(Cl)ccc12`, for which the drug sensitivity score in experiment [1] is 7.2; in experiment [2], 4.7; in experiment [3], 2.9.
The like results for `C=CC(=O)Nc1cccc(Oc2nc(Nc3ccc(N4CCN(C)CC4)cc3)nc3ccsc23)c1` [Olmutinib] were, in that order, 1.5, 0 and 0.
Turning to `COC(=O)c1ccc2c(c1)NC(=O)/C2=C(\Nc1ccc(N(C)C(=O)CN2CCN(C)CC2)cc1)c1ccccc1` [Nintedanib], the figures for the drug sensitivity score in experiment [1], in experiment [2] and in experiment [3] were 8.3, 1.3 and 0.3, respectively.
Take `CC(C)C[C@H](NC(=O)[C@H](Cc1ccccc1)NC(=O)c1cnccn1)B(O)O` [Bortezomib]: the results for the drug sensitivity score in experiment [1], in experiment [2] and in experiment [3] were 25, 25.9 and 26.7, respectively.
The like results for `O=C1Cc2cc(C(=O)NC3C[C@H]4CC[C@@H](C3)N4S(=O)(=O)CC3CCN(CCCC(F)(F)F)CC3)c(Cl)cc2N1` (some centres undefined) were, in that order, 0, 0 and 0.
On the same counts, the results for `CN1CCN(c2nc(C3=C(c4c[nH]c5ccccc45)C(=O)NC3=O)c3ccccc3n2)CC1` [Sotrastaurin] are 0.3, 0 and 0.
Turning to `NC(=S)N/N=C/c1ncccc1N` [Triapine], the drug sensitivity score in experiment [1] stood at 3.9; in experiment [2] it was 3.6; in experiment [3] it was 4.7.
On the same counts, the results for `O=C(O)C(=O)O.[NH-][C@@H]1CCCC[C@H]1[NH-].[Pt+2]` [Oxaliplatin] are 12.3, 10.2 and 8.1.
The like results for `C[C@@H](C(=O)O)c1ccc(-c2ccccc2)c(F)c1` [Tarenflurbil] were, in that order, 0, 0 and 0.
On the same counts, the results for `Cn1ncc(Cl)c1-c1cc(C(=O)N[C@H](CN)Cc2cccc(F)c2)sc1Cl` [Afuresertib] are 0, 0 and 0.
For `CC1(C)OCCn2c1nc1c(N3CCOCC3)nc(-c3cnc(N)nc3)nc12` [GDC-0084], the drug sensitivity score in experiment [1] came to 14.9; in experiment [2] it was 10.2; in experiment [3] it was 7.
For `CCN1C(=O)CNc2ncc(-c3ccc(-c4nc[nH]n4)nc3C)nc21` [CC-115], the drug sensitivity score in experiment [1] is 9.4; in experiment [2], 7.8; in experiment [3], 8.9.
As to `CN(C)C1CCN(C(=O)c2ccc(NC(=O)Nc3ccc(-c4nc(N5CCOCC5)nc(N5CCOCC5)n4)cc3)cc2)CC1` [Gedatolisib], the drug sensitivity score in experiment [1] was 5.2; in experiment [2], 1.9; in experiment [3], 0.
On the same counts, the results for `Nc1ncn([C@H]2C[C@H](O)[C@@H](CO)O2)c(=O)n1` [Decitabine] are 0.6, 0 and 1.1.
On the same counts, the results for `Cn1cc(CNCC2CCN(c3ncc(C(=O)NO)cn3)CC2)c2ccccc21` [Quisinostat] are 12.7, 8.6 and 9.8.
The like results for `CCCc1cc(C)[nH]c(=O)c1CNC(=O)c1cc(-c2ccnc(N3CCN(C)CC3)c2)cc2c1cnn2C(C)C` [GSK343] were, in that order, 0, 0 and 0.
`COc1cccc2c1c(O)c(C(=O)N(C)c1ccc(C(F)(F)F)cc1)c(=O)n2C` [Tasquinimod]: the drug sensitivity score in experiment [1], in experiment [2] and in experiment [3] was 0 each time.
With `C/C(=C\c1csc(C)n1)[C@@H]1C[C@@H]2O[C@]2(C)CCC[C@H](C)[C@H](O)[C@@H](C)C(=O)C(C)(C)[C@@H](O)CC(=O)N1` [Ixabepilone], the values for the drug sensitivity score in experiment [1], in experiment [2] and in experiment [3] were 5, 5 and 5.4, respectively.
Consider `O=c1[nH]c(=O)n([C@H]2C[C@H](O)[C@@H](CO)O2)cc1F` [Floxuridine], for which the drug sensitivity score in experiment [1] was determined as 22.7; in experiment [2], 21.7; in experiment [3] it was 18.2.
On the same counts, the results for `CN(c1ncccc1CNc1nc(Nc2ccc3c(c2)CC(=O)N3)ncc1C(F)(F)F)S(C)(=O)=O` are 6, 5.8 and 4.4.
For `CC[C@H](C)C(=O)O[C@H]1C[C@H](O)C=C2C=C[C@H](C)[C@H](CC[C@@H](O)C[C@@H](O)CC(=O)O)[C@H]21` [Pravastatin], the drug sensitivity score in experiment [1], in experiment [2] and in experiment [3] was 0 in each case.
Regarding `CCNC(=O)C[C@@H]1N=C(c2ccc(Cl)cc2)c2cc(OC)ccc2-n2c(C)nnc21` [Molibresib], the results for the drug sensitivity score in experiment [1], in experiment [2] and in experiment [3] were 9.5, 2.9 and 0.9, respectively.
On the same counts, the results for `Nc1ccccc1NC(=O)c1ccc(CNC(=O)OCc2cccnc2)cc1` [Entinostat] are 4.4, 5.5 and 5.4.
For `CCCOc1ccn2c(C(C)=O)cc(-c3ccccc3S(C)(=O)=O)c2c1` [GSK2801], the drug sensitivity score in experiment [1], in experiment [2] and in experiment [3] was 0 in each case.
Regarding `COc1cccc2c1C(=O)c1c(O)c3c(c(O)c1C2=O)C[C@@](O)(C(C)=O)C[C@@H]3O[C@H]1C[C@H](N)[C@H](O)[C@H](C)O1` [Daunorubicin], the figures for the drug sensitivity score in experiment [1], in experiment [2] and in experiment [3] were 11.6, 10.3 and 9.5, respectively.
On the same counts, the results for `CN[C@@H](C)C(=O)N[C@H](C(=O)N1CCC[C@H]1c1nc(C(=O)c2ccc(F)cc2)cs1)C1CCCCC1` [NVP-LCL161] are 0.5, 3.1 and 0.
On the same counts, the results for `CN1CCN(C(=O)c2ccc3cc(CCNc4ncnc5ccc(C#N)cc45)ccc3c2)CC1` [Senexin B] are 0.6, 0.1 and 0.
On the same counts, the results for `COc1c(OCCCN2CCOCC2)ccc2c1N=C(NC(=O)c1cnc(N)nc1)N1CCN=C21` [Copanlisib] are 10.9, 6.2 and 5.8.
With `CCNC(=O)c1noc(-c2cc(C(C)C)c(O)cc2O)c1-c1ccc(CN2CCOCC2)cc1` [Luminespib], the results for the drug sensitivity score in experiment [1], in experiment [2] and in experiment [3] were 20.7, 18.4 and 15.8, respectively.
As for `CS(=O)(=O)CCNCc1ccc(-c2ccc3ncnc(Nc4ccc(OCc5cccc(F)c5)c(Cl)c4)c3c2)o1` [Lapatinib], the drug sensitivity score in experiment [1] was determined as 6.8; in experiment [2], 0; in experiment [3] it was 0.9.
On the same counts, the results for `Nc1nc(NC2CC2)cc(-c2cccc(Cl)c2Cl)n1` [TH588] are 0, 0 and 0.
The like results for `O=c1ncn2nc(Sc3ccc(F)cc3F)ccc2c1-c1c(Cl)cccc1Cl` [Neflamapimod] were, in that order, 0, 0 and 0.
On the same counts, the results for `CCOCc1nc2c(N)nc3ccccc3c2n1CC(C)(C)O` [Resiquimod] are 0, 0 and 0.
